Data: ChEMBL document CHEMBL5252644, “Discovery of SYD5115, a novel orally active small molecule TSH-R antagonist” (Bioorg Med Chem, 2023)

Assays:
[1] = AUC (0-infinity) in Wistar Han rat at 2 mg/kg,iv administrated for 24 hrs by LC-MS/MS analysis; format: ADME, organism-based; design: time 24 hrs, dose 2 mg/kg, route iv; conditions: in vivo
[2] = Tmax in Wistar Han rat at 5 mg/kg,po administrated for 24 hrs by LC-MS/MS analysis; format: ADME, organism-based; conditions: in vivo
[3] = Drug concentration in M22-induced Wistar rat plasma at 12.5 micromol/kg,po measured upto 24 hrs by LC-MS/MS analysis; format: ADME, cell-free; conditions: dose 12.5 µmol/kg
[4] = AUC (0-infinity) in Wistar Han rat at 5 mg/kg,po administrated for 24 hrs by LC-MS/MS analysis; format: ADME, organism-based; design: time 24 hrs, dose 5 mg/kg, route po; conditions: in vivo
[5] = Oral bioavailability in Wistar Han rat at 5 mg/kg administrated for 24 hrs by LC-MS/MS analysis; format: ADME, organism-based; conditions: in vivo
[6] = Volume of distribution at steady state in Wistar Han rat at 2 mg/kg,iv administrated for 24 hrs by LC-MS/MS analysis; format: ADME, organism-based; conditions: in vivo, read-out: Vdss
[7] = Drug concentration in M22-induced Wistar rat plasma at 12.5 to 100 micromol/kg,po measured upto 24 hrs by LC-MS/MS analysis; format: ADME, cell-free; conditions: dose 12.5-100 µmol/kg
[8] = Cmax in Wistar Han rat at 5 mg/kg,po administrated for 24 hrs by LC-MS/MS analysis; format: ADME, organism-based; design: dose 5 mg/kg, time 24 hrs, route po; conditions: in vivo

| Compound | AUC(0-inf) [1] [ng·h/mL] | Tmax [2] [h] | Drug uptake [3] | AUC(0-inf) [4] [ng·h/mL] | bioavailability [5] [%] | Vd [6] [L/kg] | Drug uptake [7] | Cmax [8] [ng/mL] |
| --- | --- | --- | --- | --- | --- | --- | --- | --- |
| CC(=O)N1c2cnc(NC(=O)O[C@@H](C)C(C)(C)C)nc2C2(CCC(F)(F)CC2)C1(C)C | 617 | 1 | Not Active | 709 | 47 | 8.76 | Active | 145 |
| CC(=O)N1CCC(C)(c2ccccc2)c2cc(NC(=O)CCc3cccc(C(F)(F)F)c3)ccc21 (racemic) | 694 | 1 | – | 141 | 8 | 2.41 | – | 52 |
